Values after ≈ are worked out from the molar mass of the structure shown. Where two headings read alike, the source gives them in different places.
What was measured:
Aqueous solubility = assay type: physicochemical; conditions: water
rodent model of TBI = assay: Motor function after TBI, rotarod test; assay type: in vivo, Sprague Dawley rats; conditions: rat TBI, 10 mg/kg 30 min post-injury, 10 days
Description: The maximum duration of the task was 120 s.
Injury was induced in halothane-anesthetized (ProVet) male Sprague Dawley rats (400 ± 20 g) using acceleration-induced impact TBI [29, 93]. This model involves impacting a 10 mm diameter, 3 mm thick stainless steel disc fixed centrally to the exposed skull between the lambda and bregma with an accelerating impactor. The impactor was a 450 g brass weight dropped from a height of 2 m. […] All animals were fed and watered ad libitum before the induction of injury. During both surgery and the immediate recovery phase, rat rectal temperature was maintained using a thermostatically controlled heating pad. Immediately after injury, animals were manually ventilated until stable respiration was restored, usually in <5 min. After injury, all wounds were sutured. Blood pressure was monitored, both before and after injury, using a femoral arterial line.
Motor and cognitive outcomes in animals (n = 6 per group) were assessed using the rotarod and Barnes maze, respectively, as described in detail elsewhere [64]. The rotarod consists of a motorized rotating assembly of 18 rods (1 mm in diameter) upon which the animals were placed. The rotational speed of the device was increased from 0 to 30 r.p.m. and the duration (in seconds) when the animals either completed the task, fell from the rods, or gripped the rods and spun for two consecutive revolutions rather than walking actively was recorded as the rotarod score. […] After activating the bright lights and aversive auditory stimulus, the latency (in seconds) for the animal to locate and enter the escape tunnel was recorded. All animals were pretrained on both functional outcome tests twice per day over 5 days before injury to establish a normal, uninjured baseline.

Serotonin 5-HT1B = Serotonin 5-HT1B (Homo sapiens, UniProt P28222); assay: Cerep selectivity profiling, receptor antagonism; assay type: biochemical; conditions: Serotonin 5-HT1B antagonism
Chain of Serotonin 5-HT1B (P28222 whole entry): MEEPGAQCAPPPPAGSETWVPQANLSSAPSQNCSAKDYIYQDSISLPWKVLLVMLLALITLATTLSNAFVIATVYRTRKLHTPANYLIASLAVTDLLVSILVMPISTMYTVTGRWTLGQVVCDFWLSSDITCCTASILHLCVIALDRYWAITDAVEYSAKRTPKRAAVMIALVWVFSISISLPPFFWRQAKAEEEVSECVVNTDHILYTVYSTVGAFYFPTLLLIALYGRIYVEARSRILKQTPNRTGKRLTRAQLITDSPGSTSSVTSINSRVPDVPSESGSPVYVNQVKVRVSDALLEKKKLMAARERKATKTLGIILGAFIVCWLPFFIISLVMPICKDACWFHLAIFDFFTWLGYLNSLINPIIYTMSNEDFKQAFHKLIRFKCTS
Procedure: (§1) The pharmacological specificity of EUC-001 was assessed using the commercially available selectivity profiling services provided by Cerep (Celle l’Evescault, France). Initially, the activity of EUC-001, at a fixed concentration of 10 μM, was evaluated in a range of assays to assess pharmacological selectivity relative to other cell-surface receptors, ion channels and transport proteins. Where any significant binding was detected, further assays were performed to quantify potential non-selective activity. […] In terms of this non-specific activity, the IC50s are approximately 3.6 log units greater than that required for NK1R antagonism.
(§2) The pharmacological specificity of EUC-001 was assessed using the commercially available selectivity profiling services provided by Cerep (Celle l’Evescault, France). For initial screens, the binding of EUC-001 (synthesized by Hoffmann-La Roche, Basel, Switzerland) at a fixed concentration of 10 μM was evaluated in a range of assays to assess pharmacological selectivity relative to other cell-surface receptors, ion channels and transport proteins.
(§3) For agonist activity, results are expressed as a percentage of the control agonist response induced by the selective NK1R agonist [Sar^9, Met(O2)^11]-substance P (100 nM) for a range of concentrations of EUC-001. Antagonist activity is expressed as a percentage change in the response induced by 3 nM [Sar^9, Met(O2)^11]-SP (R&D systems) across a range of concentrations of EUC-001. The EC50 values (concentration producing a half-maximal specific response) and IC50 values (concentration causing a half-maximal inhibition of the control specific agonist response) were determined by non-linear regression analysis of the concentration–response curves generated with mean replicate values using Hill equation curve fitting (Y = D + [(A − D)/(1 + (C/C50)nH)], where Y = specific response, D = minimum specific response, A = maximum specific response, C = compound concentration, and C50 = EC50 or IC50, and nH = slope factor). This analysis was performed using custom software developed at Cerep and validated by comparison with data generated by the commercial software SigmaPlot® 4.0 for Windows® (SPSS Inc., Chicago, IL, USA). For the antagonists, the apparent dissociation constants (KB) were calculated using the modified Cheng Prusoff equation (KB = IC50/(1 + (A/EC50A)), where A = concentration of reference agonist in the assay, and EC50A = EC50 value of the reference agonist).

[1] = molecular target: T1, Muscarinic cholinergic M1 (Homo sapiens, UniProt P11229); assay: Cerep selectivity profiling, receptor antagonism; assay type: biochemical
T1 sequence (P11229 1-460): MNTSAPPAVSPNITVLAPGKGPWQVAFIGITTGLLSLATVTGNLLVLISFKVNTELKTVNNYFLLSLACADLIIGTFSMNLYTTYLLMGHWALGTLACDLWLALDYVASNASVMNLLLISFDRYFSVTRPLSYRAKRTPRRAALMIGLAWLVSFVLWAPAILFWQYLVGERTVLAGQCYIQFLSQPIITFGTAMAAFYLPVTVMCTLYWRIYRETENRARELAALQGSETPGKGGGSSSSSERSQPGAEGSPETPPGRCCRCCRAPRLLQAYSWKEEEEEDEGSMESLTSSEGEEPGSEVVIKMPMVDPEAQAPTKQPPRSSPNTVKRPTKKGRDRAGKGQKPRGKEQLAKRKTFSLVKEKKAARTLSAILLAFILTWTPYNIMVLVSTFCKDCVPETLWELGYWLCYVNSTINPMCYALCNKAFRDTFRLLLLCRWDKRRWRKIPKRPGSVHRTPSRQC
Procedure: as §1, §2, §3

Dopamine D1 = Dopamine D1 (Homo sapiens, UniProt P21728); assay: Cerep selectivity profiling, receptor antagonism; assay type: biochemical
Chain of Dopamine D1 (P21728 whole entry): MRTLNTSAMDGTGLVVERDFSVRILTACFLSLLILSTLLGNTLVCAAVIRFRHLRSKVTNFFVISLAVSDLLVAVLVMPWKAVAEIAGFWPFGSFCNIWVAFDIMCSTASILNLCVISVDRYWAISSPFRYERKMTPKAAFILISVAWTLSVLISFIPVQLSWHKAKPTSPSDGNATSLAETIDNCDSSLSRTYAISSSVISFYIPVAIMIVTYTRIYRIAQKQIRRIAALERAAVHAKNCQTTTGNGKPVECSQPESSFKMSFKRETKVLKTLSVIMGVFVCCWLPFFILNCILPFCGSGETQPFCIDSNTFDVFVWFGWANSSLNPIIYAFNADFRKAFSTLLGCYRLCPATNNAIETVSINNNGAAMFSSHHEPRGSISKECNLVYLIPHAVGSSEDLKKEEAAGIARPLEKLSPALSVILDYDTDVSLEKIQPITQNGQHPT
Procedure: as §1, §2, §3

Histamine H2 = Histamine H2 (Homo sapiens, UniProt P25021); assay: Cerep selectivity profiling, receptor antagonism; assay type: biochemical
Chain of Histamine H2 (P25021 whole entry): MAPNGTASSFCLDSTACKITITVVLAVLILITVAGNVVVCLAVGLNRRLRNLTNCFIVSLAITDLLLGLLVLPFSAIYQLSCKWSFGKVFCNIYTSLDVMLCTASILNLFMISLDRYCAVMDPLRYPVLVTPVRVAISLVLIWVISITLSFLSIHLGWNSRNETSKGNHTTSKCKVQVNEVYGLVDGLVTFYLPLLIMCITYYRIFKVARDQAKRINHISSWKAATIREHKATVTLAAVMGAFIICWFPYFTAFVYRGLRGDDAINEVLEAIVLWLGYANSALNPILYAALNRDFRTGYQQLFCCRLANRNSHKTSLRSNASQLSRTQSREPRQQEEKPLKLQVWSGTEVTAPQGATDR
Procedure: as §1, §2, §3

Adenosine A2A = Adenosine A2A (Homo sapiens, UniProt P29274); assay: Cerep selectivity profiling, receptor antagonism; assay type: biochemical
Chain of Adenosine A2A (P29274 whole entry): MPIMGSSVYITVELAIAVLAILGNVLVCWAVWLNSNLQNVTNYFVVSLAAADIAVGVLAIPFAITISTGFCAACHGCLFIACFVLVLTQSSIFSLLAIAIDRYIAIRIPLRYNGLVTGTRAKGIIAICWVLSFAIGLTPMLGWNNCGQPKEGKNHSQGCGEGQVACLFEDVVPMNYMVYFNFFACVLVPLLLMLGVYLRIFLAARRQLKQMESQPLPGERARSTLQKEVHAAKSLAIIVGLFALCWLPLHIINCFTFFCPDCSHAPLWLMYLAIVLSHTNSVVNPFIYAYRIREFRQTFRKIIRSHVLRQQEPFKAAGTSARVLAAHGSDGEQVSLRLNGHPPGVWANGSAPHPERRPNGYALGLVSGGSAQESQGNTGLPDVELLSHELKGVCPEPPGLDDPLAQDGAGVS
Procedure: as §1, §2, §3

[2] = molecular target: Muscarinic cholinergic M3 (Homo sapiens, UniProt P20309); assay: Cerep selectivity profiling, receptor antagonism; assay type: biochemical
Chain of Muscarinic cholinergic M3 (P20309 whole entry): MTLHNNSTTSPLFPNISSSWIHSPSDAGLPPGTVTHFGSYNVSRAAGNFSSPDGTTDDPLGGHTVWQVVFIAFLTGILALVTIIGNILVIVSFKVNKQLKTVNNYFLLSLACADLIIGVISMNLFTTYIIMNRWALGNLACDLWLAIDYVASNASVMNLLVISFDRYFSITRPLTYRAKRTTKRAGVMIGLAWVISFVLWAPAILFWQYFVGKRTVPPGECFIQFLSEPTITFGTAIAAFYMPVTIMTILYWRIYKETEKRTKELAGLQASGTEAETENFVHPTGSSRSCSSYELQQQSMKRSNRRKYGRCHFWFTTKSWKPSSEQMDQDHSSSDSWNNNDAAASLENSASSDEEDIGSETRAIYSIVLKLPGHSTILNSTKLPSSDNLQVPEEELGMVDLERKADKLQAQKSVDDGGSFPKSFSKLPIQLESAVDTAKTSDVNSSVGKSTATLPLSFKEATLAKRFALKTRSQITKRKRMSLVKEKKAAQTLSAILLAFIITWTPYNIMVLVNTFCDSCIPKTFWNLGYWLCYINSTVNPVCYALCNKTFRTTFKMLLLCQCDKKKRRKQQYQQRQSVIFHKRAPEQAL
Procedure: as §1, §2, §3

central NK1Rs = molecular target: T2, central NK1Rs (Meriones unguiculatus, UniProt Q5DUB1); assay: Gerbil foot-tapping response induced by icv GR73632; assay type: in vivo, Mongolian Gerbils
T2 construct: antagonize central NK1Rs in vivo; from tissue; host or cells: brain of living Mongolian gerbils (in vivo)
T2 sequence (Q5DUB1 whole entry): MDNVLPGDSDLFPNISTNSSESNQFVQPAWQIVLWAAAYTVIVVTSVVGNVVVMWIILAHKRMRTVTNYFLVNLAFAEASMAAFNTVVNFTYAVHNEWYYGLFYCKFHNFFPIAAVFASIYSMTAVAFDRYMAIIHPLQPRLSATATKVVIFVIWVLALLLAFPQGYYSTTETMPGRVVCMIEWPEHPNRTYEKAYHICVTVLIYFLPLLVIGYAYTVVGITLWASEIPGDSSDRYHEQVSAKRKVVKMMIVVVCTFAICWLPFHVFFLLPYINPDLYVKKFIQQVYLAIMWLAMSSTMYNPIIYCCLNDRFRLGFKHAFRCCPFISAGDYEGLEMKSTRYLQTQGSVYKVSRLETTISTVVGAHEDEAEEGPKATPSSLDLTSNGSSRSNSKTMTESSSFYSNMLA
Description: The ability of EUC-001 to antagonize central NK1Rs in vivo was examined using the gerbil foot-tapping response. The hind-foot-tapping response is a species-specific, CNS-mediated reaction that occurs in response to fear-evoking situations or aversive stimuli. The same, stereotyped response can be induced by the intracerebroventricular (icv) injection of a selective NK1 receptor agonist, such as GR73632 [59]. In turn, this NK1R-mediated response can be inhibited by centrally acting NK1R antagonists, as well as other anxiolytic agents. Animals were pretreated with a range of concentrations of EUC-001 2 h prior to the icv administration of the NK1R agonist, GR73632.
Female Mongolian Gerbils weighing 30–60 g were administered drug vehicle or a predetermined dose of EUC-001 either orally (po) at a volume of 5 mL/kg or intravenously (iv) at a volume of 1 mL/kg. […] Following recovery from the anesthesia (recovery of the righting reflex), a 5 min observation period was allocated per study and the amount of time gerbils spent tapping their hind paws was measured.

## Cc1ccccc1-c1cc(N2CCN(C)CC2)ncc1C(=O)N(C)Cc1cc(C(F)(F)F)cc(C(F)(F)F)c1 [EUC-001, N-(3,5-Bis-trifluoromethyl-benzyl)-N-methyl-6-(4-methyl-piperazine-1-yl)-4-o-tolyl-nicotinamide]
Aqueous solubility; free base
  solubility: 500 µg/mL (≈ 908 µM)
Aqueous solubility; hydrochloride salt
  solubility: 1500 µg/mL
Rodent model of TBI
  Motor function, rotarod score: much smaller decline in motor function
Serotonin 5-HT1B
  IC50: 6.1 µM
[1]
  IC50: 3.3 µM
Dopamine D1
  IC50: 16 µM
Histamine H2
  IC50: 16 µM
Adenosine A2A
  IC50: 30 µM
[2]
  IC50: 3.3 µM
Central NK1Rs; iv administration, icv GR73632, read-out: IC50 dose, inhibition of foot-tapping response
  ED50: 0.68 mg/kg
Central NK1Rs; oral administration (po), icv GR73632 3 pmol/5 µL, read-out: IC50 dose, inhibition of foot-tapping response
  ED50: 0.89 mg/kg

Reference: publication PMC10970734, “Identification of an Intravenous Injectable NK1 Receptor Antagonist for Use in Traumatic Brain Injury” (International Journal of Molecular Sciences, 2024)
